This note sets out measurements from US8044018B2, “Reagents and methods for smooth muscle therapies” (Arizona Board of Regents, priority 2008, dated 2011).

Experiment [1] relates to internal anal sphincter smooth muscles. Put plainly: Muscle bath: human internal anal sphincter, tonic sustained contractions. The following applies: 1 mM final concentration; after washout of sodium nitroprusside. An excerpt:
The internal anal sphincter was obtained from a human pathology specimen after an abdominal perineal resection for cancer. The smooth muscles were equilibrated in a muscle bath as described in example 6. The muscles developed tonic sustained contractions when warmed in the bicarbonate buffer. These contractions relaxed with the addition of the guanylate cyclase activator, sodium nitroprusside (SNP). When the sodium nitroprusside was washed out of the bath, the muscles again contracted spontaneously. The muscles were then treated with the PTD-phosphopeptide analogues of HSP20 (NH2-βAYARRAAARQARAWLRRAS*APLPGLK-COOH, 1 mM final concentration) (SEQ ID NO:307).

In experiment [2] the test system is A10 cells. Put plainly: Serum-induced proliferation, cell counts. Type of experiment: cell-based. The following applies: 50 μM in 10% FBS; 24 hours; serum starved 3 days beforehand. How it is done: A10 cells were serum starved for 3 days. The cells were then treated with media containing 10% fetal bovine serum, PTD-pHSP20 (NH2-βAYARRAAARQARAWLRRAS*APLPGLK-COOH (SEQ ID NO:307), or PTD-scrambled-pHSP20 (NH2-βAYARRAAARQARAPRKS*LWALGRPLA-COOH (SEQ ID NO:308) (50 μM). After 24 hours cell counts were performed. The number of cells per well in the serum starved plates averaged […] (+/−7.4) compared to 276+/−6.1 in wells containing 10% fetal bovine serum (FBS). In the presence of FBS, the phosphopeptide analogues of HSP20 containing a transduction domain inhibited of smooth muscle proliferation, 149+/−14.6 compared to transduction of the scrambled phosphopeptide analogue of HSP20 (242.3+/−15.3 cells/well). The results of these experiments are illustrated in FIG. 9.

The subject of experiment [3] is Bovine aortic endothelial cells. In words: Focal adhesion disassembly, interference reflection microscopy. Type of experiment: cell-based. The following applies: HSP20 peptides 10 uM for 30 minutes; serum starved one hour. How it is done:
Bovine aortic endothelial cells were plated on glass coverslips (80K-100K cells) in DMEM plus 10% FBS over night (24 wells plate). The cells were serum starved (no serum) for one hour and incubated in the presence of the peptide analogues of HSP20 [NH2-βAYARRAAARQARAWLRRAS*APLPGLK-COOH-pHSP20 (10 uM) (SEQ ID NO:307) or scrambled analogues of HSP20 [NH2-βAYARRAAARQARAPRKS*LWALGRPLA-COOH-scHSP20 (10 uM)] (SEQ ID NO:308) for 30 minutes. The cells were fixed with 3% glutaraldehyde and the number of focal adhesions was detected with interference reflection microscopy. The Hep I peptide was used as a positive control. This peptide binds to the heparin binding site of thrombospondin in induces focal adhesion disassembly. […] The results are illustrated in FIG. 7.

The test system of a further experiment is Tracheal smooth muscles. In words: Muscle bath: rabbit tracheal smooth muscle pre-contracted with carbachol. Set-up: species or system New Zealand White rabbits. How it is done: (§1) Tracheal and corpra cavernosal smooth muscles were obtained from a New Zealand White rabbits after sacrifice. The muscles were equilibrated in a muscle bath as described in example 6. The tracheal muscles were pre-contracted with carbachol and the corpra cavernosal smooth muscles were pre-contracted with norepinephrine. The muscles were then treated with the PTD-phosphopeptide analogues of HSP20 (NH2-βAYARRAAARQARAWLRRAS*APLPGLK-COOH) (SEQ ID NO:307).

The subject of experiment [4] is corpra cavernosal smooth muscles. In words: Muscle bath: rabbit corpra cavernosal smooth muscle pre-contracted with norepinephrine. Set-up: species or system New Zealand White rabbits. How it is done: as §1
In experiment [5] the test system is A10 cells. In words: Boyden chamber migration assay. Type of experiment: cell-based.
For experiment [6], the system named is Human saphenous vein smooth muscles. Put plainly: Muscle bath: human saphenous vein rings, contraction in response to serotonin. The note with it: peptide in 7.5% dextran gel; serotonin 1 uM. How it is done:
Human saphenous vein was obtained from remnants that were discarded after vascular bypass operations. Rings of the saphenous vein were equilibrated in a muscle bath as described in experiment 4. The rings were treated with a 7.5% dextran gel alone, or a 7.5% dextran gel containing the phosphopeptide analogues of HSP20 (NH2-βAYARRAAARQARAWLRRAS*APLPGLK-COOH) (SEQ ID NO:307). The rings were then treated with serotonin (1 uM). The rings treated with the 7.5% dextran gel alone contracted in response to serotonin.

The subject of experiment [7] is A10 cells. Put plainly: Scratch wound migration assay. In kind it is cell-based. The following applies: 50 μM; 10% FBS media; 24 hours. How it is done:
Confluent A10 cells were serum starved (0.5% fetal bovine serum, FBS) for 48 hours. A linear wound was made in the smooth muscle cell monolayer using a rubber scraper and the scratched edges were marked using metal pins.

The next experiment concerns human saphenous vein. Put plainly: Intimal hyperplasia in cultured human saphenous vein segments, morphometric intimal area. The following applies: 14 days; media with 30% fetal bovine serum; versus serum alone or scrambled analogue. How it is done: Segments of human saphenous vein were cultured in media containing 30% fetal bovine serum.
Another experiment has as its system porcine coronary artery. In words: Muscle bath: serotonin pre-contracted rings of porcine coronary artery, endothelium not denuded. The note with it: cumulative doses added every 10 minutes; n=5; FIG. 4. How it is done:
Rings of porcine coronary artery in which the endothelium was not denuded, were suspended in a muscle bath containing bicarbonate buffer (120 mM NaCl, 4.7 mM KCl, 1.0 mM MgSO4, 1.0 mM NaH2PO4, 10 mM glucose, 1.5 mM CaCl2, and 25 mM […], pH 7.4), equilibrated with 95% O2/5% CO2, at 37° C. at one gram of tension for 2 hours. The muscles were pre-contracted with serotonin ([…] for 10 minutes) and cumulative doses of PTD-pHSP20 (NH2-βAYARRAAARQARAWLRRAS*APLPGLK-COOH, closed circles) (SEQ ID NO:307) or PTD-scrambled-pHSP20 (NH2-βAYARRAAARQARAPRKS*LWALGRPLA-COOH open circles) (SEQ ID NO:308) were added every 10 minutes (FIG. 4). The percentage of relaxation is depicted as a percentage of the maximal serotonin contraction (n=5, *=p<0.05 compared to 0 peptide added). The concentrations of peptide used are depicted on the x axis. Representative rings were treated with peptides (1 mM final concentration) linked to FITC (15 minutes at 37° C.), fixed in 4% paraformaldehyde and examined under fluorescence microscopy (40× magnification).

Experiment [8] relates to Intestinal smooth muscle from the tinea coli. In words: Muscle bath: pig tinea coli, contractile response to carbachol. The note with it: peptide in a dextran gel, 1 mM final concentration; then treated with carbachol. How it is done: Intestinal smooth muscle was obtained from the tinea coli of a pig. These muscles were equilibrated in a muscle bath as described in example 6. The muscles produced transient contractions in response to high extracellular potassium chloride (KCl 110 mM) and in response to carbachol (10^−6 M). The muscles were then treated with a dextran gel containing the PTD-phosphopeptide analogues of HSP20 (NH2-βAYARRAAARQARAWLRRAS*APLPGLK-COOH, 1 mM final concentration) (SEQ ID NO:307) and treated with carbachol.

In the case of “NH2-βAYARRAAARQARAWLRRAS*APLPGLK-COOH (AYARRAAARQARAWLRRASAPLPGLK; HELM PEPTIDE1{[bAla].Y.A.R.R.A.A.A.R.Q.A.R.A.W.L.R.R.A.[O=C([C@H](COP(=O)(O)O)N[*:1])[*:2]].A.P.L.P.G.L.K}$$$$V2.0; SMILES CC(C)C[C@H](NC(=O)CNC(=O)[C@@H]1CCCN1C(=O)[C@H](CC(C)C)NC(=O)[C@@H]1CCCN1C(=O)[C@H](C)NC(=O)[C@H](COP(=O)(O)O)NC(=O)[C@H](C)NC(=O)[C@H](CCCNC(=N)N)NC(=O)[C@H](CCCNC(=N)N)NC(=O)[C@H](CC(C)C)NC(=O)[C@H](Cc1c[nH]c2ccccc12)NC(=O)[C@H](C)NC(=O)[C@H](CCCNC(=N)N)NC(=O)[C@H](C)NC(=O)[C@H](CCC(N)=O)NC(=O)[C@H](CCCNC(=N)N)NC(=O)[C@H](C)NC(=O)[C@H](C)NC(=O)[C@H](C)NC(=O)[C@H](CCCNC(=N)N)NC(=O)[C@H](CCCNC(=N)N)NC(=O)[C@H](C)NC(=O)[C@H](Cc1ccc(O)cc1)NC(=O)CCN)C(=O)N[C@@H](CCCCN)C(=O)O) [PTD-pHSP20, Phosphopeptide analogue of HSP20 with a protein transduction domain different from TAT]”, the “relaxation of spontaneous tonic contraction” value in experiment [1] was “relaxed and spasm was prevented”. Further, in the experiment with A10 cells [2], the “number of cells per well” value is 149+/−14.6 cells/well. Besides, in experiment [3], the “focal adhesion disassembly (number of focal adhesions)” value is reported as “led to focal adhesion disassembly”. Further, the “relaxation of pre-contracted muscle” value in the experiment with Tracheal smooth muscles was “relaxed and spasm was prevented”; in [4], “relaxed and spasm was prevented”. In addition, in the experiment with A10 cells [5], the “migration of A10 cells” value is listed as “inhibition of migration”. The “contraction in response to serotonin” value in experiment [6] is “did not contract”. Further, the “number of cells migrating into a 1 cm^2 scratched area” value in the experiment on A10 cells [7] was “inhibition of migration”. The intimal area entry in the experiment with human saphenous vein is reported as “significant reduction in intimal area”. Further, the “relaxation as percentage of the maximal serotonin contraction” value in the experiment on porcine coronary artery is “relax and prevent spasm”. Also, the “contractile response to carbachol” value in experiment [8] was “significantly attenuated”.
